Read-outs that look alike come from different tables or passages of the source.
Columns and labels:
[1] = system: TNFα-FL/Gaussia Luciferase; assay: Dox Induced TNFα-FL-Gluc Assay; format: cell-based
Source text: (§1) Flp-In 293 T-REx™ cells were transfected with pcDNA™5/FRT/TO plasmid inserted with cDNA encoding Gaussia Luciferase fused to the 3′ end of cDNA encoding full length TNFα (amino acids 1-233). Transfected cells were selected for resistance to the selectable markers Hygromycin and Blasticidin to create a stable cell line that contained the TNFα-FL/Gaussia Luciferase cDNA insert whose expression was regulated under the T-REx™ system. The day before assay, cells were trypsinized and plated in 384-well tissue culture plates. The next day, compound dilutions in DMSO/media containing doxycycline were added to the wells and incubated at 37° C., 5% CO2.
(§2) For chemical structures that include one or more stereoisomers, but are illustrated without indicating stereochemistry, the assay data refers to a mixture of stereoisomers.

[2] = system: multiple myeloma cell line NCI-H929; assay: H929 Cell Viability Assay; format: cell-based, human; conditions: Homo sapiens
Summary of the method: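 Luminescent ATP detection (CellTiter-Glo) after 48 hours of compound exposure measures viability. Cells were plated in RPMI 1640 containing 10% fetal bovine serum and kept at 37° C under 5% CO2.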

[3] = system: PD1-ss+10aa/Gaussia Luciferase; assay: Dox-Induced PD1-ss-Gluc Assay; format: cell-based
Summary of the method: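 Stable Flp-In 293 T-REx cells carried a doxycycline-inducible construct of Gaussia luciferase fused to the PD1 signal sequence plus 10 amino acids. Cells were plated the day before, then treated with compound dilutions in DMSO/media containing doxycycline at 37 °C, 5% CO2.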

[4] = Liver Microsome Stability Assay, rat; format: in vitro ADME; conditions: rat liver microsomes 1.0 mg/mL, 1.0 uM compound, 37° C., 1 mM NADPH
Summary of the method: (§3)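 Incubations at 37° C contain 1.0 mg/mL liver microsomes and 1.0 uM compound, with 1 mM NADPH present or absent. Time points are 0 and 30 minutes.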

[5] = system: IL-2-FL/Gaussia Luciferase; assay: Dox Inducible IL2-FL-Gluc Assay; format: cell-based
Summary of the method: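 Cells are plated one day ahead, then receive compound dilutions in DMSO/media with doxycycline and incubate at 37° C, 5% CO2. They are Flp-In 293 T-REx cells expressing a full-length IL-2 (amino acids 1-153)–Gaussia luciferase fusion under T-REx control.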

[6] = system: HER3-ss+4aa/Gaussia Luciferase; assay: Dox-Inducible Her3-ss-Gluc Assay; format: cell-based
Source text: as §1, with “HER3 signal sequence plus 4 amino” for “full length TNFα (amino”, “(N-[…]-C) (SEQ ID NO: 2).” for “1-233).”, “HER3-ss+4aa/Gaussia” for “TNFα-FL/Gaussia”
as §2

[7] = Liver Microsome Stability Assay, human; format: in vitro ADME; conditions: human liver microsomes 1.0 mg/mL, 1.0 uM compound, 37° C., 1 mM NADPH
Summary of the method: as §3

[8] = system: multiple myeloma cell line U266B1; assay: U266 Cell Viability Assay; format: cell-based; conditions: Homo sapiens
Summary of the method: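 Steps: culture in RPMI 1640 plus 10% FBS and 2 mM glutamine; plate and add compound dilutions; incubate 48 hours at 37° C., 5% CO2; add CellTiter-Glo and quantify luciferase signal.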

[9] = Liver Microsome Stability Assay, monkey; format: in vitro ADME; conditions: monkey liver microsomes 1.0 mg/mL, 1.0 uM compound, 37° C., 1 mM NADPH
Summary of the method: as §3

[10] = Liver Microsome Stability Assay, mouse; format: in vitro ADME; conditions: mouse liver microsomes 1.0 mg/mL, 1.0 uM compound, 37° C., 1 mM NADPH
Summary of the method: as §3

[11] = Flp-In 293 T-REx cells, 24 hours with doxycycline; Table 3; read-out: 24 hr Dox Inducible TNFaFLGluc 293FRT/TO: Mean IC50
[12] = ratio of IC50s TNF/PD1; Table 3
[13] = NCI-H929 cells, 48 hours, Celltiter-Glo, read-out: 48 hr H929 Viability Celltiter-Glo: Mean EC50
[14] = Flp-In 293 T-REx cells, 24 hours with doxycycline; Table 3; read-out: 24 hr Dox Inducible PD1ssGluc 293FRT/TO: Mean IC50
[15] = Flp-In 293 T-REx cells, 24 hours with doxycycline; Table 3; read-out: 24 hr Dox Inducible IL2FLGluc 293FRT/TO: Mean IC50
[16] = ratio of IC50s IL2/PD1; Table 3
[17] = Flp-In 293 T-REx cells, 24 hours with doxycycline; Table 3; read-out: 24 hr Dox Inducible Her3(ss + 4)Gluc 293FRT/TO: Mean IC50
[18] = U-266, U266B1 cells, 48 hours, Celltiter-Glo, read-out: 48 hr U266 Viability Celltiter-Glo: Mean EC50

Structure (SMILES)	IC50 [1, 11] [µM]	24 hr Dox Inducible TNFaFLGluc 293FRT/TO: TNF/PD1 [1, 12]	EC50 [2, 13] [nM]	IC50 [3, 14] [µM]	Liver Microsome Stability (Multiple Species): Rat - % Remaining after 30 min w/ NADPH (%) [4] [%]	IC50 [5, 15] [µM]	24 hr Dox Inducible IL2FLGluc 293FRT/TO: IL2/PD1 [5, 16]	IC50 [6, 17] [µM]	Liver Microsome Stability (Multiple Species): Human - % Remaining after 30 min w/ NADPH (%) [7] [%]	EC50 [8, 18] [nM]	Liver Microsome Stability (Multiple Species): Monkey - % Remaining after 30 min w/ NADPH (%) [9] [%]	Liver Microsome Stability (Multiple Species): Mouse - % Remaining after 30 min w/ NADPH (%) [10] [%]	IC50 ([1]; read-out: 24 hr Dox Inducible TNFaFLGluc 293FRT/TO: Mean IC50; Flp-In 293 T-REx cells, 24 hours with doxycycline; Table 3) [µM]	EC50 ([2]; NCI-H929, 48 h, read-out: 48 hr H929 Viability Celltiter-Glo: Mean EC50 (nM)) [nM]	IC50 ([3]; read-out: 24 hr Dox Inducible PD1ssGluc 293FRT/TO: Mean IC50; Flp-In 293 T-REx cells, 24 hours with doxycycline; Table 3) [µM]	IC50 ([5]; read-out: 24 hr Dox Inducible IL2FLGluc 293FRT/TO: Mean IC50; Flp-In 293 T-REx cells, 24 hours with doxycycline; Table 3) [µM]	IC50 ([6]; read-out: 24 hr Dox Inducible Her3(ss + 4)Gluc 293FRT/TO: Mean IC50; Flp-In 293 T-REx cells, 24 hours with doxycycline; Table 3) [µM]	EC50 ([8]; U-266, 48 h, read-out: 48 hr U266 Viability Celltiter-Glo: Mean EC50 (nM)) [nM]
O=C(Nc1nc(/C=C/[C@H]2CC[C@H](C(F)(F)F)CC2)cs1)c1cccn1Cc1ccncc1 [Compound B10, 1-(pyridin-4-ylmethyl)-N-(4-((E)-2-((1r,4r)-4-(trifluoromethyl)cyclohexyl)vinyl)thiazol-2-yl)-1H-pyrrole-2-carboxamide]	1.01	25	5810	0.041	5	0.249	6	0.086	38	> 25000	11	49						
C/C(=C\c1cn(C(C)C)cn1)c1csc(NC(=O)c2cccn2Cc2ccnc(F)c2)n1 [Compound B24, (E)-1-((2-fluoropyridin-4-yl)methyl)-N-(4-(1-(1-isopropyl-1H-imidazol-4-yl)prop-1-en-2-yl)thiazol-2-yl)-1H-pyrrole-2-carboxamide]	> 25	>46	13600	0.54	1	> 25	>46	> 25	1	15300	<1	3						
C/C(=C\c1cn(C(C)C)cn1)c1csc(NC(=O)c2cccn2Cc2ccncc2)n1 [Compound B25, (E)-N-(4-(1-(1-isopropyl-1H-imidazol-4-yl)prop-1-en-2-yl)thiazol-2-yl)-1-(pyridin-4-ylmethyl)-1H-pyrrole-2-carboxamide]	> 25	>61	13700	0.404	<1	> 25	>62	> 25	<1	17300	<1	0.05						
O=C(Nc1nc(/C=C/c2ncoc2CO)cs1)c1cccn1Cc1ccnc(F)c1 [Compound B1, (E)-1-((2-fluoropyridin-4-yl)methyl)-N-(4-(2-(5-(hydroxymethyl)oxazol-4-yl)vinyl)thiazol-2-yl)-1H-pyrrole-2-carboxamide]		>2			3		>2.8		10		2	29	> 25	> 25000	8.93	> 25	> 25	> 25000
O=C(Nc1nc(/C=C/[C@H]2CC[C@@H](C(F)(F)F)CC2)cs1)c1cccn1Cc1ccncc1 [Compound B9, 1-(pyridin-4-ylmethyl)-N-(4-((E)-2-((1s,4s)-4-(trifluoromethyl)cyclohexyl)vinyl)thiazol-2-yl)-1H-pyrrole-2-carboxamide]	3.97	25	6260	0.161	4	0.748	5	0.298	6	20000	1	6						
O=C1CCn2cc(/C=C/c3csc(NC(=O)c4cccn4Cc4ccnc(F)c4)n3)nc2N1 [Compound B3, (E)-1-((2-fluoropyridin-4-yl)methyl)-N-(4-(2-(7-oxo-5,6,7,8-tetrahydroimidazo[1,2-a]pyrimidin-2-yl)vinyl)thiazol-2-yl)-1H-pyrrole-2-carboxamide]	> 25	>38	> 25000	0.644	19	> 25	>39	> 25	<1	> 25000	1	53						
